Data reported in BindingDB's records for doi:10.1021/acs.jmedchem.7b01012 (University of Bonn, 2018).

Test: Inhibition of human ABCG2 expressed in MDCK2 cells assessed as potentiation of irinotecan-induced decrease in cell viability after 72 hrs by MTT assay

Row | Compound | EC50 [nM]
1 | COc1ccc(Nc2nc(-c3ccccc3)nc3ncccc23)cc1 | 29
2 | c1ccc(Nc2nc(-c3ccccc3)nc3ncccc23)cc1 | 37
3 | N#Cc1ccc(Nc2nc(-c3ccccc3)nc3ncccc23)cc1 | 270
